According to patent publication US20240100125A1 (ENYO PHARMA, priority 2021, published 2024):
One block for each compound: values may come before it.

What was measured:
[1] = test system: HBV; conditions: chronic hepatitis B patients; cited from earlier work
[2] = test system: FXR; assay: FXR engagement markers (C4, FGF19) in HBV chronically infected patients; type: in vivo, human; conditions: all EYP001 doses; data not shown
[3] = test system: HBV; assay: 4-week treatment course in HBV chronically infected patients: HBV replication markers (pgRNA, HBcrAg, HBsAg); type: in vivo, human
[4] = Pruritus under EYP001 once a day versus twice a day in combined treatment with IFN-α; type: in vivo, human; conditions: EYP001 once a day rather than twice a day
Method: Therefore, in a particular aspect, the FXR agonist is administered once a day.

[5] = test system: HBV infected primary human hepatocytes (PHH); assay: HBV replication in infected primary human hepatocytes (PHH), FXR agonist +/- IFN-alpha; type: cell-based; conditions: treated day 4 to 10 post-infection, harvested day 10, GW4064 1 or 10 uM, IFN-alpha 100 IU/mL
Method: FIG. 3. […] Freshly prepared and seeded PHH were infected with HBV at a multiplicity of infection of 250 GE/cell. From day 4 to 10 post-infection, cells were treated with […], +/−IFN-alpha at 100 IU/mL, or vehicle (NT), or IFN-alpha at 100 IU/mL alone. Cells and supernatants were harvested at day 10 for intracellular HBV RNA, viremia, and secreted antigens (HBsAg and HBeAg) quantification. Results are the mean+/−SD of one experiment performed with three biological replicates.
FIG. 4. […] Freshly prepared and seeded PHH were infected with HBV at a multiplicity of infection of 250 GE/cell. From day 4 to 10 post-infection, cells were treated with Vonafexor at 10 uM, or Nidufexor at 10 uM, or Tropifexor at 1 uM, or OCA at 10 uM, or GW4064 at 10 uM, +/−IFN-alpha (IFN) at 100 IU/mL, or vehicle, or IFN-alpha at 100 IU/mL alone. Supernatants were harvested at day 10 for secreted HBs antigen (HBsAg) quantification. Results are the mean+/−SEM of five experiments performed with three replicates.
Supernatants containing HBV particles were clarified (0.45 μm filter) and concentrated with 8% PEG 8000 (Sigma-Aldrich).
HBV DNA was quantified using the AmpliPrep/COBAS® TaqMan® HBV Test (Roche).
HBs and HBe antigens secreted in cells supernatant were quantified, after required dilutions, with Autobio kits (AutoBio, China) according to manufacturer's protocol.
Total RNA was prepared using NucleoSpin RNA Plus (Macherey-Nagel). After DNA digestion with TURBO DNase (Ambion), maximum 1000 ng RNA were reverse-transcribed using High-Capacity RNA-to-cDNA kit (Thermo Fisher Scientific). […] All assays were performed in triplicate.
HBs antigen secreted in cells supernatant were quantified, after required dilutions, with Autobio kits (AutoBio, China) according to manufacturer's protocol.
PHH are naturally susceptible to infection with HBV virions produced in vitro, leading to very high levels of replication of the virus.

[6] = change from baseline at day 29, EYP001a 1 × 100 mg/day oral monotherapy
[7] = change from baseline at day 29, EYP001a 1 × 200 mg/day oral monotherapy
[8] = change from baseline at day 29, EYP001a 1 × 400 mg/day oral monotherapy
[9] = change from baseline at day 29, EYP001a 2 × 200 mg/day oral monotherapy
[10] = change from baseline at end of 4-week treatment (day 29), ETV open-label 0.5 mg/day

pruritus [4]: fewer pruritus
SMILES: O=C(O)c1cc2c(Cl)c(N3CCN(S(=O)(=O)c4c(Cl)cccc4Cl)CC3)ccc2o1 [EYP001a]
HBV viral load [1]: reduces HBV viral load | C4 [2]: decreases | FGF19 [2]: increases | HBVpgRNA Mean [3, 6]: 0.5 Log10 Copies mL | HBcrAg Mean [3, 6]: −0.3 Log10 IU mL | HBVpgRNA Mean [3, 7]: 0.4 Log10 Copies mL | HBcrAg Mean [3, 7]: 0.2 Log10 IU mL | HBVpgRNA Mean [3, 8]: 0.2 Log10 Copies mL | HBcrAg Mean [3, 8]: 0.02 Log10 IU mL | HBVpgRNA Mean [3, 9]: −0.1 Log10 Copies mL | HBcrAg Mean [3, 9]: 1.2 Log10 IU mL | mean HBsAg decrease ([3]; end of treatment on day 29, 400 mg QD EYP001, p<0.05): −0.1 log 10 IU/mL

SMILES: C=C1[C@H](CO)[C@@H](O)C[C@@H]1n1cnc2c(=O)[nH]c(N)nc21 [ETV, entecavir, reference compound]
HBVpgRNA Mean [3, 10]: −0.3 Log10 Copies mL | HBcrAg Mean [3, 10]: 0.03 Log10 IU mL

SMILES: CC(C)c1onc(-c2c(Cl)cccc2Cl)c1COc1ccc(/C=C/c2cccc(C(=O)O)c2)c(Cl)c1 [GW4064, 3-[2-[2-Chloro-4-[[3-(2,6-dichlorophenyl)-5-(1-methylethyl)-4-isoxazolyl]methoxy]phenyl]ethenyl]benzoic acid]
HBeAg secretion [5]: reduce in a dose response manner | HBsAg secretion [5]: unable to significantly impact | intracellular HBV RNA level [5]: reduce in a dose response manner | viremia [5]: unable to significantly impact
